A melting point compilation (Tetko et al.)

Row | SMILES | melting point [°C]
1 | CCCC1CC(C(=O)NC(C(C)Cl)C2OC(SC)C(O)C(O)C2O)N(C)C1 (stereo unspecified) | 141
2 | N#Cc1cnc(N)s1 | 185
3 | FC(F)(F)c1cccc(Cl)c1 | -56
4 | Clc1ccc(C(Cl)Cl)c(Cl)c1Cl | 84
5 | OCC(O)CC(F)(F)C(F)(F)C(F)(F)C(F)(F)C(F)(F)C(F)(F)C(F)(F)C(F)(F)F (stereo unspecified) | 114 to 116
6 | CCCCOCCOCCOC(=O)CCCCC(=O)OCCOCCOCCCC | -47
7 | CC(C)(C)NC=O | 16
8 | Cc1[nH]nc(Cl)c1[N+](=O)[O-] | 111
9 | CC(C(=O)O)C(=O)O | 129 to 136
10 | OCc1ccc(-c2nccs2)cc1 | 94 to 97
11 | c1cc(-c2csnn2)ccc1OCC1CO1 (stereo unspecified) | 70 to 72
12 | COc1cc(/C=C/[N+](=O)[O-])c([N+](=O)[O-])cc1OC | 168 to 169
13 | OCC(c1ccccc1)c1ccccc1 | 64.5
14 | Sc1nccc(-c2ccc(Cl)cc2)n1 | 210 to 214
15 | Cc1nsc(N)n1 | 202 to 209
16 | O=[N+]([O-])c1cc(C(F)(F)F)ccc1CCl | 44
17 | O=C1C(=O)C(Cl)=C(Cl)C(Cl)=C1Cl | 125 to 129
18 | O=c1[nH]c(=O)n(C2CC(O)C(CO)O2)cc1Br (stereo unspecified) | 192
19 | FC1=C(F)C(F)(F)C1(F)F | -60
20 | O=C(CCl)Nc1ccccc1C(F)(F)F | 92 to 94
21 | FC(F)(F)C(F)(Cl)Cl | -56.6
22 | CCC(C(=O)O)C1(O)CCC(c2ccccc2)CC1 (stereo unspecified) | 157
23 | CN1CCN(c2ccc(C(=O)O)cc2)CC1 | 270
24 | O=C(C1CCCCC1)N1CC(=O)N2CCc3ccccc3C2C1 (stereo unspecified) | 136
25 | OC1CCOc2ccccc21 (stereo unspecified) | 41 to 45
26 | O=C(O)C1C(C(=O)O)C2(Cl)C(Cl)=C(Cl)C1(Cl)C2(Cl)Cl (stereo unspecified) | 209
27 | Cc1cc(N)n[nH]1 | 41 to 43

Row | SMILES | melting point [°C]
28 | CCc1c(CC)c(CC)c(CC)c(CC)c1CC | 129
29 | CCOc1ccc(Br)cc1 | 4
30 | CN(C)C(C)(C)C | -90
31 | c1ccc(N=Nc2ccc(/N=N/c3ccc(N=Nc4ccccc4)cc3)cc2)cc1 | 233
32 | CCCCCCCCCCCCCCCC1CCCCC1 | 29
33 | CCOCn1c(-c2ccc(Cl)cc2)c(C#N)c(Br)c1C(F)(F)F | 101
34 | CN(c1c(F)c(F)c(-c2c(F)c(F)c(F)c(F)c2F)c(F)c1F)[N+](=O)[O-] | 140
35 | Brc1ccc2[nH]c3ccc(Br)cc3c2c1 | 212
36 | BrCc1cccc(N2CCCC2)n1 | 69 to 72.5
37 | O=C(O)COCCNC(=O)C12CC3CC(CC(C3)C1)C2 | 120 to 124
38 | COc1ccccc1-c1ccc(C=C2C(=O)NC(=O)NC2=O)o1 | 220
39 | O=C1CN(N=Cc2ccc([N+](=O)[O-])o2)C(=O)N1CN1CCOCC1 | 206
40 | BrCCCCCBr | -34
41 | CCCCC(CC)COC(=O)CCCCCCCCC(=O)OCC(CC)CCCC (stereo unspecified) | -48
42 | CC1(C)C=C(C(=O)ON2C(=O)CCC2=O)C(C)(C)N1O | 175 to 178
43 | Clc1ccc(P(c2ccc(Cl)cc2)c2ccc(Cl)cc2)cc1 | 103
44 | Nc1ccc(Br)c(F)c1 | 68
45 | NC(=O)c1cccnc1Sc1ccc(Cl)cc1 | 209 to 211
46 | CCCCCCCCC(=O)OCCCCCCC | -15.5
47 | C[Si](C)(C)N([Si](C)(C)C)[Si](C)(C)C | 67 to 69
48 | CCCCN1CCCCC1C(=O)Nc1c(C)cccc1C (stereo unspecified) | 107
49 | O=C1OCC(O)C1O (stereo unspecified) | 99 to 102
50 | NC(=O)C1(N2CCCCC2)CCNCC1 | 129 to 132
51 | CSc1nc2ccc([N+](=O)[O-])cc2s1 | 134 to 136
52 | O=Cc1ccc(OCc2ccc([N+](=O)[O-])cc2)cc1 | 130
53 | CCCCCCCCCCC#CC#CCCCCCCC(=O)O | 51 to 52
54 | NNC(=S)Nc1ccc(Cl)cc1Cl | 169

Row | SMILES | melting point [°C]
55 | CC(C)(C)OC(=O)NCCCC(=O)O | 55
56 | CC1(C)OC2CC3C4CCC5=CC(=O)C=CC5(C)C4(F)C(O)CC3(C)C2(C(=O)CO)O1 (stereo unspecified) | 293
57 | CC(=NNC(N)=O)c1ccncc1 | 218
58 | CCC(C)=NNc1ccc([N+](=O)[O-])cc1[N+](=O)[O-] | 117
59 | CCC1N(O)C(C)(C)C(C(=O)O)=[N+]1[O-] (stereo unspecified) | 98.8 to 99
60 | CCCCCCNC | -31
61 | CC(=O)OCC1OC=CC(OC(C)=O)C1OC(C)=O (stereo unspecified) | 54
62 | OCCC(F)(F)C(F)(F)C(F)(F)C(F)(F)C(F)(F)C(F)(F)C(F)(F)C(F)(F)F | 46.2
63 | O=C(Cl)c1ccc2c(c1)OCCO2 | 100 to 101
64 | BrCC(Br)(Br)Br | 0
65 | N#Cc1ccccc1C(F)(F)F | 18
66 | O=C(O)Cc1ccc(F)cc1F | 118
67 | ClCCN(CCCl)c1ccc2ccccc2c1 | 55
68 | CC(C)(C)C(=O)OCOC(=O)C1N2C(=O)C(N=CN3CCCCCC3)C2SC1(C)C (stereo unspecified) | 119
69 | c1ccc(CN(CC2=NCCN2)c2ccccc2)cc1 | 120
70 | C[C@]12CCC(O)CC1=CC[C@@H]1[C@@H]2CC[C@]2(C)C(O)CC[C@@]12C (stereo partly specified) | 182 to 184
71 | c1coc(CSSCc2ccco2)c1 | 10
72 | CCCCCOC(=O)COc1cc(N2C(=O)C3=C(CCCC3)C2=O)c(F)cc1Cl | 89
73 | Oc1cccc(S)c1 | 16.5
74 | C=CCCCCCCCCCCCCCCCCC1CC(=O)OC1=O (stereo unspecified) | 67.2
75 | BrCCI | 28
76 | O=S(=O)(Cl)c1cc(F)c(Br)cc1F | 35
77 | CC(=O)c1cccnc1C(=O)OC(C)C | 40
78 | O=C(O)c1ccc(C(=O)C(F)(F)F)cc1 | 178 to 181
79 | CCCCOC(=O)C=CC(=O)OCCCC | -85
80 | N#CC(CCc1ccc(Cl)cc1)(Cn1cncn1)c1ccccc1 (stereo unspecified) | 126

Next, values leading:

Row | melting point [°C] | SMILES
81 | 265 | Cn1c(=O)c(C2=NNC(=O)C2=Cc2cccc(Cl)c2)c(O)c2ccccc21
82 | 268 to 275 | O=C1Nc2c(C(=O)O)cccc2C1=O
83 | 126 | O=C(COC(=O)c1ccccc1)NC(CO)(CO)CO
84 | 81.5 | CN(C)C(=O)COC(=O)c1ccccc1
85 | 198 to 200 | O=C(O)c1ccccc1-n1ccnc1
86 | 55 | OCc1cccc(-c2ccccc2)c1
87 | 160 | NC(=O)/C(=N\Nc1ccc(O)cc1)c1nc2ccccc2s1
88 | 80 to 82 | CCOC(=O)/C(=N\Nc1ccccc1)C(=O)C(F)(F)F
89 | 188 | Nc1ccc(Nc2ccc([N+](=O)[O-])cc2[N+](=O)[O-])cc1
90 | 77.5 | COc1cc(Cl)c(Cl)cc1Cl
91 | 128 | COc1ccc(-c2onc(C(=O)c3ccc([N+](=O)[O-])cc3)c2S(=O)(=O)c2ccccc2)cc1
92 | 151 to 155 | O=C1C(c2ccccc2)=C(c2ccccc2)c2ccccc21
93 | 176 | Clc1ccc2c(c1)C(N1CCNCC1)=Nc1ccccc1O2
94 | 152 | Oc1c2ccccc2cc2ccccc12
95 | 61 | CC1=CC(c2ccccc2)c2ccccc21 (stereo unspecified)
96 | 90.5 to 92.5 | CN(CCO)c1cc(C(F)(F)F)nc2ccccc12
97 | 231 | O=C1C(Cl)=C(Cl)C(=O)C(NCc2ccccc2)=C1Cl
98 | 250 | Nc1ccc(N=Nc2ccc(S(N)(=O)=O)cc2)c(N)c1
99 | 143 to 146 | NC(=S)C(c1ccccc1)c1ccccc1
100 | 280 | O=C1CN(N=Cc2ccc(-c3ccc([N+](=O)[O-])cc3)o2)C(=O)N1
101 | 146 | O=c1n(-c2ccccc2)c(=O)n2n1C1OC3c4ccccc4C1C32 (stereo unspecified)
102 | 129 to 131 | CC(=O)c1ccc(S(C)(=O)=O)cc1
103 | 202 to 203 | CSc1ccc(-n2c(-c3ccccc3)cc(C(=O)O)c2C)cc1

Row | melting point [°C] | SMILES
104 | 96 | COc1cc(OCc2ccccc2)ccc1C=O
105 | 188 | NS(=O)(=O)c1ccccc1OC(F)(F)F
106 | 206 | NS(=O)(=O)c1ccc(N2C(=O)CC(c3ccccc3)C2=O)c(Cl)c1 (stereo unspecified)
107 | 219 | COC1=CC(=O)CC(C)C12Oc1c(Cl)c(OC)cc(OC)c1C2=O (stereo unspecified)
108 | 63 | N#CCc1cccc([N+](=O)[O-])c1
109 | 204 | COc1cc(S(C)=O)ccc1-c1nc2ncccc2[nH]1 (stereo unspecified)
110 | 173 | O=C(C1=NOC2C(=O)N(c3cccc([N+](=O)[O-])c3)C(=O)C12)c1ccccc1 (stereo unspecified)
111 | 120 | O=C(Nc1nc(-c2ccc(Cl)cc2)cs1)c1ccccc1
112 | 198 | O=C(O)c1c(Cl)c(Cl)c(Cl)c(Cl)c1C(=O)Nc1cccc(Cl)c1Cl
113 | 86 to 88 | O=S(=O)(Cl)c1csc2ccccc12
114 | 104 to 106 | COC(=O)c1ccc(NC(C)C)c(N)c1
115 | 211 | Cc1cccc(C(=O)N(NC(=O)c2ccccc2)C(C)(C)C)c1
116 | 104 | CC1CCC(C(C)C)C(OC(=O)C(C=Cc2ccccc2)C(=O)c2ccccc2)C1 (stereo unspecified)
117 | 154 to 159 | CC1(NC(=O)c2ccccc2)COCOC1=O (racemic)
118 | 124 | CC(=O)Oc1ccc(OC(C)=O)c2ccccc12
119 | 66 to 67 | COc1ccccc1-c1nc(CCl)no1
120 | 220 to 224 | CCOC(=O)c1c(Nc2ccc(OC)cc2)sc2c(-c3ccc(Cl)cc3)c(C#N)c(N)nc12
121 | 73.5 | O=C(OCCOC(=O)c1ccccc1)c1ccccc1
122 | 242 | COc1cc(N)c2c(c1N)C(=O)c1ccccc1C2=O
123 | 169 | O=C(O)Cc1c[nH]c2ccccc12
124 | 165 to 168 | COc1ccc(C(N)=O)c(Cl)c1OC
125 | 229 | O=C(Oc1c(-c2ccccc2)[nH]c2cc([N+](=O)[O-])ccc12)c1ccccc1
126 | 194 | NC(=O)C1c2ccccc2CCc2ccccc21
